Patent US20230055021A1, “METHODS FOR TREATING PSYCHIATRIC DISORDERS OR SYMPTOMS THEREOF USING NCAM PEPTIDE MIMETICS” (The Board of Trustees of the Leland Stanford Junior …, priority 2012, published 2023)

How the values were obtained:
adult rats [1] = assay: forced swim test (FST), depression-like behavior; format: in vivo
Experimental: The NCAM peptide mimetic FGLm (5 μg) or vehicle was administered intracerebroventricularly (i.c.v.) to adult rats. […]
FGLL (10 mg/kg, s.c.) or control was also administered to adult rats via injection every 24 hours for 16 days. Animals were tested for locomotion on Day 13, tested for anxiety-like behavior with the EPM on Day 14, tested for depression-like behavior with the FST on Days 15 and 16, and sacrificed on Day 17. […]

adult rats [2] = assay: elevated plus maze (EPM), anxiety-like behavior; format: in vivo; conditions: 1, 5 or 10 mg/kg s.c., injected 30 minutes before test
Experimental: The NCAM peptide mimetic FGLL (1 mg/kg, 5 mg/kg, or 10 mg/kg) or control was administered subcutaneously (s.c.) to adult rats. For the elevated plus maze (EPM), which measures anxiety-like behavior, animals were injected 30 minutes before the test. For the FST, which measures depression-like behavior, animals were injected 1 hour and 5 hours after Day 1 and 30 minutes before Day 2.
The NCAM peptide mimetic plannexin (10 mg/kg) or vehicle control was acutely administered intraperitoneally (i.p.) to adult rats.
Plannexin (10 mg/kg, i.p.) or control was also chronically administered to adult rats via injection every 48 hours on odd days. Animals were tested for locomotion on Day 13, tested for anxiety-like behavior with the EPM on Day 14, tested for depression-like behavior with the FST on Days 15 and 16, and sacrificed on Day 17.

[3] = 10 mg/kg s.c. every 24 hours for 16 days, FST on Days 15 and 16

Compound	climbing in FST (adult rats [1]; [3])	effect on depression as measured by the FST (adult rats [1]; [3])	immobility in FST (adult rats [1]; [3])	effect on anxiety as measured by the EPM (adult rats [2])	time spent in the Closed parts of the EPM (adult rats [2]; effect at higher doses)	effect on depression as measured by the FST (adult rats [1]; 5 μg i.c.v., vs vehicle)	immobility in FST (adult rats [1]; 5 μg i.c.v., vs vehicle)	swimming in FST (adult rats [1]; 5 μg i.c.v., vs vehicle)
CC(C)[C@H](NC(=O)[C@H](CCC(=O)O)NC(=O)CNCC(=O)N[C@@H](CCC(=O)O)C(=O)N[C@H](C(=O)N[C@H](C(=O)N[C@@H](C)C(=O)N[C@@H](CCC(=O)O)C(=O)N[C@@H](CC(N)=O)C(=O)N[C@@H](CCC(N)=O)C(=O)N[C@@H](CCC(N)=O)C(=O)NCC(=O)N[C@@H](CCCCN)C(=O)N[C@@H](CO)C(=O)N[C@@H](CCCCN)C(=O)N[C@@H](C)C(N)=O)C(C)C)C(C)C)C(=O)N[C@H](C(=O)N[C@@H](C)C(=O)N[C@@H](CCC(=O)O)C(=O)N[C@@H](CC(N)=O)C(=O)N[C@@H](CCC(N)=O)C(=O)N[C@@H](CCC(N)=O)C(=O)NCC(=O)N[C@@H](CCCCN)C(=O)N[C@@H](CO)C(=O)N[C@@H](CCCCN)C(=O)N[C@@H](C)C(N)=O)C(C)C (stereo in doubt) [FGLL]	significantly more climbing	decreased depression	less immobility	increased anxiety	significantly increased			
EVYVVAENQQGKSKA [FGLm, NCAM peptide mimetic]						decreased depression	less immobility	significantly more swimming
